{"source": "patent US7855294B2", "about": "“Cycloalkanopyridine derivative” (Banyu Pharmaceutical Co., Ltd., priority 2004, dated 2010)", "key": {"male ICR (CD-1) mice": {"tested_on": "male ICR (CD-1) mice", "assay": "Antagonism test: hypokinesis (suppression of motion) induced by a nociceptin agonist", "type": "in vivo", "details": "test compound 1 to 10 mg/kg and nociceptin agonist 1 mg/kg hypodermically; motion for 60 minutes; difference between agonist group and solvent control group set to 100%", "method": "Using male ICR (CD-1) mice (weighing 20 to 40 g), antagonism to hypokinesis (suppression of motion) induced by a nociceptin agonist was observed. That is, the quantity of motion of each mouse in a 20 cm×30 cm×20 cm cage was measured with an infrared sensor. The test compound (1 to 10 mg/kg) as dissolved in either 0.5% methyl cellulose liquid or a solvent, and a nociceptin agonist (1 mg/kg) were administered to the test mice hypodermically, and the quantity of their motion for 60 minutes was measured. To the control group mice, the solvent only was administered. The evaluation was made by representing the quantity of motion of the mice administered with the test compound by percent, where the difference in the quantity of motion between the nociceptin agonist-administered group and that of the solvent-administered control group during the test time was set to be 100%."}, "nociceptin receptor ORL1 [1]": {"biological_target": "T1, nociceptin receptor ORL1 (Homo sapiens, UniProt P41146)", "T1 sequence (P41146 whole entry)": "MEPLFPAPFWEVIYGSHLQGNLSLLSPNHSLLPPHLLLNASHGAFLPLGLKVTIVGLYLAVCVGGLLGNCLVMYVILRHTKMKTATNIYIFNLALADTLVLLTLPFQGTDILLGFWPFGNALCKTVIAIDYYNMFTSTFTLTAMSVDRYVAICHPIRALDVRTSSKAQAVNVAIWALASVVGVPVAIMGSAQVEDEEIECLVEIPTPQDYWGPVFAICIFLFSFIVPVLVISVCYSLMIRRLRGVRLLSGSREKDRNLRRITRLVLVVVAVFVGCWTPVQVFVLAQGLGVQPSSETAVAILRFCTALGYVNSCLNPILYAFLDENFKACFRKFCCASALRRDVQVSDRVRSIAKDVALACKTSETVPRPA", "assay": "Nociceptin receptor binding inhibition assay ([125I]Tyr14-Nociceptin, CHO/ORL1 membrane fractions, SPA beads)", "set-up": "expressed in transfected cells; membrane fractions", "method": "A cDNA that codes for a human nociceptin receptor gene was cloned into an expression vector pCR3 (by Invitrogen) to prepare pCR3/ORL1. Next, pCR3/ORL1 was transfected in CHO cells using a transfectam (by Nippongene) to obtain a stable expression strain (CHO/ORL1 cells) having resistance against 1 mg/ml G418. Membrane fractions were prepared from this stable expression strain to carry out a receptor binding assay. 11 μg of the membrane fraction, 50 pM [^125I]Tyr^14-Nociceptin (by Amersham Pharmacia), 1 mg of wheat germ agglutinin SPA beads (PVT based, by Amersham Pharmacia) and each test compound were suspended in an NC buffer (50 mM Hepes, 10 mM sodium chloride, 1 mM magnesium chloride, 2.5 mM calcium chloride, 0.1% BSA, 0.025% bacitracin, pH 7.4) and incubated at 37° C. for 60 minutes, and then the radioactivity of the culture was determined."}, "nociceptin receptor ORL1 [2]": {"biological_target": "T1, nociceptin receptor ORL1", "assay": "Antagonism against nociceptin-elicited G protein activation (GTPγ[35S] binding, CHO/ORL1 membrane)", "type": "biochemical", "set-up": "expressed in transfected cells; membrane preparation", "method": "CHO cells which stably expressed a nociceptin receptor ORL1 were used to investigate the action of each test compound against nociceptin-elicited G protein activation. A membrane prepared from the CHO/ORL1 cells, 50 nM nociceptin, 200 pM GTPγ[^35S] (by NEN), 1.5 mg of wheat germ agglutinin SPA beads (by Amersham Pharmacia) and each test compound were mixed in a GDP buffer (20 mM Hepes, 100 mM sodium chloride, 10 mM magnesium chloride, 1 mM EDTA, 5 μM GDP, pH 7.4) and incubated at 25° C. for 150 minutes, and then the radioactivity of the culture was determined."}}, "note": "Where a name gives a salt, the structure may show the parent alone."}
{"smiles": "O[C@H]1C[C@H](CN2C3CCC2CC2(C3)OCc3cc(F)ncc32)CCc2cccnc21", "note": "(stereo partly drawn) (as salt: tartrate) [Example 23, (7R,9S)-7-(6′-aza-5′-fluoro-spiro[8-aza-bicyclo[3.2.1]-octa-3,1′(3′H)-isobenzofuran]-8-ylmethyl)-6,7,8,9-tetrahydro-5H-cyclohepta[b]pyridin-9-ol mono-L-tartrate]", "values": [{"measurement": "melting point", "result": "133 to 141", "unit": "°C"}]}
{"smiles": "Cc1ccccc1[C@H]1CCN(C[C@@H]2CCc3cccnc3[C@@H](O)C2)C[C@@H]1O.O=C(O)C(O)C(O)C(=O)O", "note": "(relative stereo) [Example 16, (7R,9S)-7-[(3R*,4R*)-3-hydroxy-4-o-tolyl-piperidin-1-ylmethyl]-6,7,8,9-tetrahydro-5H-cyclohepta[b]pyridin-9-ol mono-L-tartrate]", "values": [{"measurement": "Quantity of Motion (%)", "setting": "male ICR (CD-1) mice", "result": ">75", "unit": "%"}]}
{"smiles": "Cl.O[C@H]1C[C@H](CN2CC[C@H](c3ccccc3Cl)[C@@H](O)C2)CCc2cccnc21", "note": "(relative stereo) [Example 31, (7R,9S)-7-[(3R*,4R*)-4-(2-chlorophenyl)-3-hydroxypiperidin-1-ylmethyl]-6,7,8,9-tetrahydro-5H-cyclohepta[b]pyridin-9-ol monohydrochloride]", "values": [{"measurement": "Quantity of Motion (%)", "setting": "male ICR (CD-1) mice", "result": ">75", "unit": "%"}, {"measurement": "IC50", "setting": "nociceptin receptor ORL1 [1]; read-out: IC50 value", "result": 6.7, "unit": "nM"}, {"measurement": "IC50", "setting": "nociceptin receptor ORL1 [2]", "result": 2.1, "unit": "nM"}]}
{"smiles": "Cl.O[C@@H]1[C@@H](c2ccc(F)cc2Cl)CC2CC[C@@H]1N2C[C@@H]1Cc2cccnc2[C@@H](O)C1", "note": "(relative stereo) [Example 71, (6R,8S)-6-[(1S*,2R*,3R*)-3-(2-chloro-4-fluorophenyl)-2-hydroxy-8-azabicyclo[3.2.1]octan-8-ylmethyl]-5,6,7,8-tetrahydroquinolin-8-ol monohydrochloride]", "values": [{"measurement": "melting point", "result": "238 °C (dec.)"}, {"measurement": "IC50", "setting": "nociceptin receptor ORL1 [1]", "result": 1.4, "unit": "nM"}, {"measurement": "IC50", "setting": "nociceptin receptor ORL1 [2]", "result": 0.68, "unit": "nM"}]}
{"smiles": "Cc1cc(F)ccc1[C@H]1CCN(C[C@@H]2CCc3cccnc3[C@@H](O)C2)C[C@@H]1O", "note": "(single isomer, unassigned) [Example 17, (7R,9S)-7-[(3R*,4R*)-(4-fluoro-o-tolyl)-3-hydroxypiperidin-1-ylmethyl]-6,7,8,9-tetrahydro-5H-cyclohepta[b]pyridin-9-ol monohydrochloride]", "values": [{"measurement": "Quantity of Motion (%)", "setting": "male ICR (CD-1) mice", "result": ">75", "unit": "%"}]}
{"smiles": "O[C@H]1C[C@H](CN2C3CCC2CC2(C3)OCc3ccccc32)CCc2cccnc21", "note": "(stereo partly drawn) [Example 10, (7R,9S)-7-(spiro[8-aza-bicyclo[3.2.1]octa-3,1′(3′H)-isobenzofuran]-8-ylmethyl)-6,7,8,9-tetrahydro-5H-cyclohepta[b]pyridin-9-ol]", "values": [{"measurement": "IC50", "setting": "nociceptin receptor ORL1 [1]", "result": 0.37, "unit": "nM"}, {"measurement": "IC50", "setting": "nociceptin receptor ORL1 [2]", "result": 0.08, "unit": "nM"}]}
{"smiles": "O[C@H]1C[C@H](CN2C3CCC2CC2(C3)OCc3cc(F)ncc32)CCc2cccnc21", "note": "(stereo partly drawn) [Example 23, (7R,9S)-7-(6′-aza-5′-fluoro-spiro[8-aza-bicyclo[3.2.1]-octa-3,1′(3′H)-isobenzofuran]-8-ylmethyl)-6,7,8,9-tetrahydro-5H-cyclohepta[b]pyridin-9-ol mono-L-tartrate]", "values": [{"measurement": "IC50", "setting": "nociceptin receptor ORL1 [1]", "result": 0.53, "unit": "nM"}, {"measurement": "IC50", "setting": "nociceptin receptor ORL1 [2]", "result": 1.2, "unit": "nM"}]}
{"smiles": "CC1(C)OC2(CCN(C[C@@H]3Cc4cccnc4[C@@H](O)C3)CC2)c2ccccc21.O=C(O)C(O)C(O)C(=O)O", "note": "[Example 25, (6R,8S)-6-(3,3-dimethyl-spiro[isobenzofuran-1(3H),4′-piperidin]-1′-ylmethyl)-5,6,7,8-tetrahydro-quinolin-8-ol mono-L-tartrate]", "values": [{"measurement": "Quantity of Motion (%)", "setting": "male ICR (CD-1) mice", "result": ">75", "unit": "%"}, {"measurement": "IC50", "setting": "nociceptin receptor ORL1 [1]", "result": 2.5, "unit": "nM"}, {"measurement": "IC50", "setting": "nociceptin receptor ORL1 [2]", "result": 4.2, "unit": "nM"}]}
{"smiles": "O=C(O)C(O)C(O)C(=O)O.O[C@H]1C[C@H](CN2CCC(F)(c3ccccc3Cl)CC2)Cc2cccnc21", "note": "[Example 29, (6R,8S)-6-[4-(2-chlorophenyl)-4-fluoropiperidin-1-ylmethyl]-5,6,7,8-tetrahydroquinolin-8-ol mono-L-tartrate]", "values": [{"measurement": "Quantity of Motion (%)", "setting": "male ICR (CD-1) mice", "result": ">75", "unit": "%"}, {"measurement": "IC50", "setting": "nociceptin receptor ORL1 [1]; read-out: IC50 value", "result": 4.1, "unit": "nM"}, {"measurement": "IC50", "setting": "nociceptin receptor ORL1 [2]", "result": 4.7, "unit": "nM"}]}
{"smiles": "Cl.O[C@H]1C[C@H](CN2CC[C@H](c3ccc(F)cc3Cl)[C@@H](O)C2)Cc2cccnc21", "note": "[Example 33, (6R,8S)-6-[(3R,4R)-4-(2-chloro-4-fluorophenyl)-3-hydroxypiperidin-1-ylmethyl]-5,6,7,8-tetrahydroquinolin-8-ol monohydrochloride]", "values": [{"measurement": "Quantity of Motion (%)", "setting": "male ICR (CD-1) mice", "result": ">75", "unit": "%"}]}
{"smiles": "CC1(C)OC2(CC3CCC(C2)N3C[C@@H]2Cc3cccnc3[C@@H](O)C2)c2cnc(F)cc21", "note": "(stereo partly drawn) [Example 70, (6R,8S)-6-[(5′-fluoro-3′,3′-dimethyl-3′H-6′-azaspiro[8-azabicyclo[3.2.1]octane-3,1′-isobenzofuran]-8-yl)methyl]-5,6,7,8-tetrahydroquinolin-8-ol mono-L-tartrate]", "values": [{"measurement": "IC50", "setting": "nociceptin receptor ORL1 [1]", "result": 0.39, "unit": "nM"}, {"measurement": "IC50", "setting": "nociceptin receptor ORL1 [2]", "result": 0.32, "unit": "nM"}]}
